Drawing on US9073911B2, “Pyrazole derivatives” (HOFFMANN-LA ROCHE INC., priority 2011, dated 2015), this text covers Ki for 19 molecules.

In one assay the target is mouse TAAR1 (Mus musculus (Mouse), UniProt Q923Y8). Put plainly: Radioligand binding assay on mouse TAAR1. The settings on record: membranes of HEK-293 cells stably expressing mouse TAAR1; first value of cell mouse/rat. The protocol:
(§1) Construction of TAAR Expression Plasmids and Stably Transfected Cell Lines
(§2) For the construction of expression plasmids the coding sequences of human, rat and mouse TAAR 1 were amplified from genomic DNA essentially as described by Lindemann et al.. The Expand High Fidelity PCR System (Roche Diagnostics) was used with 1.5 mM Mg^2+ and purified PCR products were cloned into pCR2.1-TOPO cloning vector (Invitrogen) following the instructions of the manufacturer. PCR products were subcloned into the pIRESneo2 vector (BD Clontech, Palo Alto, Calif.), and expression vectors were sequence verified before introduction in cell lines.
(§3) HEK293 cells (ATCC # CRL-1573) were cultured essentially as described by Lindemann et al. (2005). For the generation of stably transfected cell lines HEK293 cells were transfected with the pIRESneo2 expression plasmids containing the TAAR coding sequences (described above) with Lipofectamine 2000 (Invitrogen) according to the instructions of the manufacturer, and 24 hrs post transfection the culture medium was supplemented with 1 mg/ml G418 (Sigma, Buchs, Switzerland). After a culture period of about 10 d clones were isolated, expanded and tested for responsiveness to trace amines (all compounds purchased from Sigma) with the cAMP Biotrak Enzyme immunoassay (EIA) System (Amersham) following the non-acetylation EIA procedure provided by the manufacturer.
Radioligand Binding Assay on Mouse TAAR1
(§4) Membrane Preparation and Radioligand Binding.
HEK-293 cells stably expressing mouse TAAR1 were maintained at 37° C. and 5% CO2 in DMEM high glucose medium, containing fetal calf serum (10%, heat inactivated for 30 min at 56° C.), penicillin/streptomycin (1%), and 375 μg/ml geneticin (Gibco). Cells were released from culture flasks using trypsin/EDTA, harvested, washed twice with ice-cold PBS (without Ca^2+ and Mg^2+), pelleted at 1,000 rpm for 5 min at 4° C., frozen and stored at −80° C. Frozen pellets were suspended in 20 ml HEPES-NaOH (20 mM, pH 7.4) containing 10 mM EDTA and homogenized with a Polytron (PT 6000, Kinematica) at 14,000 rpm for 20 s. The homogenate was centrifuged at 48,000×g for 30 min at 4° C. Subsequently, the supernatant was removed and discarded, and the pellet resuspended in 20 ml HEPES-NaOH (20 mM, pH 7.4) containing 0.1 mM EDTA using the Polytron (20 s at 14,000 rpm). This procedure was repeated and the final pellet resuspended in HEPES-NaOH containing 0.1 mM EDTA and homogenized using the Polytron. Typically, aliquots of 2 ml membrane portions were stored at −80° C. With each new membrane batch the dissociation constant (Kd) was determined via a saturation curve. The TAAR1 radioligand ^3[H]—(S)-4-[(ethyl-phenyl-amino)-methyl]-4,5-dihydro-oxazol-2-ylamine (described in WO 2008/098857) was used at a concentration equal to the calculated Kd value, that was usually around 0.7 nM, resulting in the binding of approximately 0.5% of the radioligand and a specific binding representing approximately 70% of the total binding. Nonspecific binding was defined as the amount of ^3[H]—(S)-4-[(ethyl-phenyl-amino)-methyl]-4,5-dihydro-oxazol-2-ylamine bound in the presence of 10 μM unlabeled ligand. All compounds were tested at a broad range of concentrations ([…]) in duplicates. […] The 96 deep well plates were incubated for 1 hr at 4° C. Incubations were terminated by rapid filtration through Unifilter-96 plates (Packard Instrument Company) and glass filters GF/C (Perkin Elmer) presoaked for 1 hr in polyethylenimine (0.3%) and washed 3 times with 1 ml of cold binding buffer. After addition of 45 μl of Microscint 40 (PerkinElmer) the Unifilter-96 plate was sealed and after 1 hr the radioactivity counted using a TopCount Microplate Scintillation Counter (Packard Instrument Company).

The next assay addresses rat TAAR1 (Rattus norvegicus (Rat), UniProt Q923Y9). Put plainly: Radioligand binding assay on rat TAAR1. The following applies: membranes of HEK-293 cells stably expressing rat TAAR1; second value of cell mouse/rat. The protocol: as §1, §2, §3
Radioligand Binding Assay on rat TAAR1
as §4
HEK-293 cells stably expressing rat TAAR1 were maintained at 37° C. and 5% CO2 in DMEM high glucose medium, containing fetal calf serum (10%, heat inactivated for 30 min at 56° C.), penicillin/streptomycin (1%), and 375 μg/ml geneticin (Gibco). Cells were released from culture flasks using trypsin/EDTA, harvested, washed twice with ice-cold PBS (without Ca^2+ and Mg^2+), pelleted at 1,000 rpm for 5 min at 4° C., frozen and stored at −80° C. Frozen pellets were suspended in 20 ml HEPES-NaOH (20 mM, pH 7.4) containing 10 mM EDTA and homogenized with a Polytron (PT 6000, Kinematica) at 14,000 rpm for 20 s. The homogenate was centrifuged at 48,000×g for 30 min at 4° C. Subsequently, the supernatant was removed and discarded, and the pellet resuspended in 20 ml HEPES-NaOH (20 mM, pH 7.4) containing 0.1 mM EDTA using the Polytron (20 s at 14,000 rpm). This procedure was repeated and the final pellet resuspended in HEPES-NaOH containing 0.1 mM EDTA and homogenized using the Polytron. Typically, aliquots of 2 ml membrane portions were stored at −80° C. With each new membrane batch the dissociation constant (Kd) was determined via a saturation curve.
Nonspecific binding was defined as the amount of ^3-[H]-(S)-4-[(ethyl-phenyl-amino)-methyl]-4,5-dihydro-oxazol-2-ylamine bound in the presence of 10 μM unlabeled ligand. All compounds were tested at a broad range of concentrations (10 pM to 10 μM) in duplicates. […] The 96 deep well plates were incubated for 1 hr at 4° C. Incubations were terminated by rapid filtration through Unifilter-96 plates (Packard Instrument Company) and glass filters GF/C (Perkin Elmer) presoaked for 1 hr in polyethylenimine (0.3%) and washed 3 times with 1 ml of cold binding buffer. After addition of 45 μl of Microscint 40 (PerkinElmer) the Unifilter-96 plate was sealed and after 1 hr the ratioactivity counted using a TopCount Microplate Scintillation Counter (Packard Instrument Company).

Molecules are shown by their SMILES. Counter-ions that a name gives are not always drawn.

Sequence of rat TAAR1 (Q923Y9 whole entry): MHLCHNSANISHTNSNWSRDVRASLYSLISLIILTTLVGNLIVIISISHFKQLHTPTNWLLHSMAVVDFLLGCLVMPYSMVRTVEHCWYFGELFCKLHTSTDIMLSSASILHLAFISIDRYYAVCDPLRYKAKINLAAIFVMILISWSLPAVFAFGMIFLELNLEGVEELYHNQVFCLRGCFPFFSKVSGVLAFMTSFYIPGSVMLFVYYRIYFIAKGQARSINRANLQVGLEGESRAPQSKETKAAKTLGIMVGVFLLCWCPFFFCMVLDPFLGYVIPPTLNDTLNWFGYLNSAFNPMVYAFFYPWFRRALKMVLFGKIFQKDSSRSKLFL
Sequence of mouse TAAR1 (Q923Y8 whole entry): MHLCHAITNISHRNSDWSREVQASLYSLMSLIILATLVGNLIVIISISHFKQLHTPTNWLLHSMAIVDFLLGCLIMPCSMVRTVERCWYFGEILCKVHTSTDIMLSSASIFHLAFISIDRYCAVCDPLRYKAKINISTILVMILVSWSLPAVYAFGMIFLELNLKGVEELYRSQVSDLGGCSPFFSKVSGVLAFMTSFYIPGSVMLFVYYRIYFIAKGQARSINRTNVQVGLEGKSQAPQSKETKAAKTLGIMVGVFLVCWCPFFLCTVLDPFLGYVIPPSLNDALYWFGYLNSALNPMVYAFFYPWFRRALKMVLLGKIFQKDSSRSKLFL

By Ki is commonly meant the dissociation constant of the complex between target and ligand, obtained from inhibition or displacement. Lower therefore signals tighter binding. As to `Cn1nc(-c2ccc(F)cc2)cc1C(=O)Nc1ccc(C2CNCCO2)cc1` (stereo in doubt) [Example 22, (S)-3-(4-fluorophenyl)-1-methyl-N-(4-(morpholin-2-yl)phenyl)-1H-pyrazole-5-carboxamide hydrochloride], the Ki at mouse TAAR1 was 0.0023 µM; at rat TAAR1, 0.0022 µM.
As to `Cn1nc(-c2cccc(Cl)c2)cc1C(=O)Nc1ccc([C@H]2CNCCO2)cc1` [Example 17, (S)-3-(3-chlorophenyl)-1-methyl-N-(4-(morpholin-2-yl)phenyl)-1H-pyrazole-5-carboxamide hydrochloride], the Ki on mouse TAAR1 stood at 0.0016 µM; on rat TAAR1, 0.0024 µM.
For `COc1ccc(-c2cc(C(=O)Nc3ccc([C@H]4CNCCO4)cc3)[nH]n2)cc1` [Example 7, (S)-3-(4-methoxyphenyl)-N-(4-(morpholin-2-yl)phenyl)-1H-pyrazole-5-carboxamide hydrochloride], the figures for the inhibition constant (Ki) at mouse TAAR1 and on rat TAAR1 were 0.0012 µM and 0.0049 µM, respectively.
Regarding `O=C(Nc1ccc([C@@H]2CNCCO2)cc1)c1cc(-c2ccc(Cl)cc2)n[nH]1` [Example 12, (R)-3-(4-chlorophenyl)-N-(4-(morpholin-2-yl)phenyl)-1H-pyrazole-5-carboxamide hydrochloride], the Ki at mouse TAAR1 was 0.0005 µM; at rat TAAR1, 0.0004 µM.
For the molecule `O=C(Nc1ccc([C@@H]2CNCCO2)cc1)c1ccn(-c2ccc(F)cc2)n1` [Example 31, (R)-1-(4-Fluorophenyl)-N-(4-(morpholin-2-yl)phenyl)-1H-pyrazole-3-carboxamide hydrochloride], the results for the Ki on mouse TAAR1 and at rat TAAR1 were 0.0013 µM and 0.0024 µM, respectively.
As for `N#Cc1cccc(-c2cc(C(=O)Nc3ccc([C@H]4CCCNC4)cc3)[nH]n2)c1` [Example 37, (R)-3-(3-Cyanophenyl)-N-(4-(piperidin-3-yl)phenyl)-1H-pyrazole-5-carboxamide hydrochloride], the Ki at mouse TAAR1 was 0.0017 µM; on rat TAAR1, 0.0027 µM.
In the case of `CCn1nc(-c2cccc(OC(F)F)c2)cc1C(=O)Nc1ccc([C@H]2CNCCO2)cc1` [Example 42, (S)-3-(3-(Difluoromethoxy)phenyl)-1-ethyl-N-(4-(morpholin-2-yl)phenyl)-1H-pyrazole-5-carboxamide hydrochloride], the figures for the Ki on mouse TAAR1 and at rat TAAR1 were 0.001 µM and 0.0021 µM, respectively.
As to `O=C(Nc1ccc([C@H]2CNCCO2)cc1)c1ccn(-c2cnc(Cl)cn2)n1` [Example 50, (S)-1-(5-Chloropyrazin-2-yl)-N-(4-(morpholin-2-yl)phenyl)-1H-pyrazole-3-carboxamide hydrochloride], the Ki on mouse TAAR1 amounted to 0.0027 µM; at rat TAAR1, 0.0091 µM.
In the same order, the values of `O=C(Nc1ccc([C@H]2CNCCO2)cc1)c1cc(-c2cccc(Cl)c2)[nH]n1` [Example 2, (S)-3-(3-chlorophenyl)-N-(4-(morpholin-2-yl)phenyl)-1H-pyrazole-5-carboxamide hydrochloride] are 0.0003 µM and 0.0004 µM.
As for `Cn1nc(-c2cccc(C#N)c2)cc1C(=O)Nc1ccc([C@H]2CNCCO2)cc1` [Example 24, (S)-3-(3-cyanophenyl)-1-methyl-N-(4-(morpholin-2-yl)phenyl)-1H-pyrazole-5-carboxamide hydrochloride], the Ki on mouse TAAR1 was determined as 0.0067 µM; at rat TAAR1, 0.0142 µM.
With `O=C(Nc1ccc([C@H]2CNCCO2)cc1)c1cc(-c2ccc(Cl)cc2)n[nH]1` [Example 14, (S)-3-(4-chlorophenyl)-N-(4-(morpholin-2-yl)phenyl)-1H-pyrazole-5-carboxamide hydrochloride], the Ki was found to be 0.0017 µM at mouse TAAR1 and 0.0028 µM on rat TAAR1.
In the case of `O=C(Nc1ccc([C@@H]2CNCCO2)cc1)c1ccn(-c2ccc(C(F)(F)F)cn2)n1` [Example 35, (R)—N-(4-(Morpholin-2-yl)phenyl)-1-(5-(trifluoromethyl)pyridin-2-yl)-1H-pyrazole-3-carboxamide hydrochloride], the results for the Ki at mouse TAAR1 and on rat TAAR1 were 0.0022 µM and 0.0006 µM, respectively.
Take `O=C(Nc1ccc([C@@H]2CNCCO2)cc1)c1cc(-c2ccccc2Cl)n[nH]1` [Example 13, (R)-3-(2-chlorophenyl)-N-(4-(morpholin-2-yl)phenyl)-1H-pyrazole-5-carboxamide hydrochloride]: the Ki turned out to be 0.0008 µM on mouse TAAR1 and 0.001 µM at rat TAAR1.
In the same order, the values of `COc1cccc(-c2cc(C(=O)Nc3ccc([C@@H]4CNCCO4)cc3)[nH]n2)c1` [Example 16, (R)-3-(3-methoxyphenyl)-N-(4-(morpholin-2-yl)phenyl)-1H-pyrazole-5-carboxamide hydrochloride] are 0.0013 µM and 0.0014 µM.
In the case of `N#Cc1cccc(-c2cc(C(=O)Nc3ccc([C@@H]4CCCNC4)cc3)[nH]n2)c1` [Example 36, (S)-3-(3-Cyanophenyl)-N-(4-(piperidin-3-yl)phenyl)-1H-pyrazole-5-carboxamide hydrochloride], the Ki is 0.0014 µM on mouse TAAR1 and 0.0138 µM at rat TAAR1.
Regarding `O=C(Nc1ccc([C@H]2CNCCO2)cc1)c1ccn(-c2ccnc(C(F)(F)F)n2)n1` [Example 54, (S)—N-(4-(Morpholin-2-yl)phenyl)-1-(2-(trifluoromethyl)pyrimidin-4-yl)-1H-pyrazole-3-carboxamide hydrochloride], the Ki on mouse TAAR1 was 0.0065 µM; at rat TAAR1, 0.0088 µM.
For the molecule `N#Cc1ccc(F)c(-c2cc(C(=O)Nc3ccc([C@H]4CNCCO4)cc3)n[nH]2)c1` [Example 28, (S)-5-(5-cyano-2-fluorophenyl)-N-(4-(morpholin-2-yl)phenyl)-1H-pyrazole-3-carboxamide hydrochloride], the results for the Ki on mouse TAAR1 and on rat TAAR1 were 0.0043 µM and 0.0129 µM, respectively.
`N#Cc1cnc(-n2ccc(C(=O)Nc3ccc([C@H]4CNCCO4)cc3)n2)cn1` [Example 53, (S)-1-(5-Cyanopyrazin-2-yl)-N-(4-(morpholin-2-yl)phenyl)-1H-pyrazole-3-carboxamide hydrochloride]: the Ki on mouse TAAR1 was 0.011 µM; at rat TAAR1 it was 0.0298 µM.
With `N#Cc1cccc(-c2cc(C(=O)Nc3ccc([C@H]4CNCCO4)cc3)[nH]n2)c1F` [Example 43, (S)-3-(3-Cyano-2-fluorophenyl)-N-(4-(morpholin-2-yl)phenyl)-1H-pyrazole-5-carboxamide hydrochloride], the Ki on mouse TAAR1 is 0.0016 µM; at rat TAAR1, 0.011 µM.
